Consider one compound from article PMC6471177 (Pharmaceutics, 2019).

The target of one data set is T1, P-gp (Homo sapiens, UniProt P08183).
T1 construct: They were allowed to grow to confluence for 5 days to obtain higher expressions of P-gp; endogenous in cells; host or cells: Caco-2
In words: Intracellular accumulation of docetaxel in Caco-2 cells (P-gp inhibition). The data set is classed as cell-based.

A short description of data set [1]: Disappearance of docetaxel in rat intestinal microsomes with LC478. The data set is classed as in vitro ADME. The settings on record: rat intestinal microsomes, LC478 1, 5, 10 µM. The protocol:
(§1) The hepatic and intestinal microsomes were prepared based on a similar reported method.
(§2) Adding 0.1 M phosphate buffer (pH 7.4) adjusted the total volume as 0.5 mL, and then the components were incubated at 37 °C using a thermomixer at 500 opm. After incubation of 15 and 30 min for the hepatic and intestinal microsomes, respectively, 1 mL of acetonitrile with 5 µg/mL of paclitaxel as an internal standard added to terminate the reaction.
(§3) The unweighted kinetic data from rat hepatic and intestinal microsomes were fitted using a single-site Michaelis–Menten Equation V = Vmax × [S]/(Km + [S])(4) where [S] is the substrate concentration, Vmax is maximal velocity, and Km is substrate concentration for half-maximal velocity. The CLint was calculated by dividing the Vmax by the Km.

The test system of data set [2] is P-gp overexpressing MES-SA/DX5 sarcoma cells. To be noted: cited from earlier work.
Data set [3] is described as follows: Disappearance of docetaxel in rat hepatic microsomes with LC478. The data set is classed as in vitro ADME. To be noted: rat hepatic microsomes, LC478 1, 5, 10 µM. How it is done: as §1, §2, §3
A further data set deals with Caco-2 cells. In words: MTT cell viability assay in Caco-2 cells. The data set is classed as cell-based. To be noted: even at 100 µM, 24 h incubation. The protocol: (§4) Caco-2 cells were obtained from the Korean Cell Line Bank (Seoul, Korea). The cells were maintained in Dulbecco’s modified Eagle’s medium (DMEM) supplemented with 10% fetal bovine serum, 1% non-essential amino acids, and 100 U/mL penicillin and gentamicin at 37 °C in a humidified 5% CO2 atmosphere.
(§5) The effect of LC478 on cell viability was assessed by an MTT assay. LC478 was dissolved in diluted in 100% dimethyl sulfoxide (DMSO) and diluted with cell culture media. Caco-2 cells were seeded in 96-well plates at 1 × 10^5 cells/mL. A 100 μL of LC478 in cell culture media was treated on the plates to achieve final concentration of LC478 in the ranges of 0.001 to 100 μM, which was incubated for 24 h. After adding 10 μL/well of MTT ([…]) and incubating them for 24 h, the supernatants of the cultures were removed and replaced with 100 μL of DMSO. The cell viability rate (%) was calculated as the absorbance of treated cells divided by that of control cells. The viability of the control cells was defined as 100%.
(Tetrazolium dyes change colour on reduction, which living cells bring about.)

Data set [4] in a line: MTT cell viability assay in Caco-2 cells. The data set is classed as cell-based. To be noted: human; Caco-2 cells, 0.001 to 100 µM, 24 h, MTT. How it is done: as §4, §5
Data set [5] is described as follows: Rat plasma protein binding of docetaxel by equilibrium dialysis. The data set is classed as in vitro ADME. The settings on record: LC478 0.1 and 10 μg/mL. How it is done: A 1 mL of the plasma was dialyzed against 1 mL of isotonic Sørensen phosphate buffer (pH 7.4) containing 3% dextran (w/v) in a dialysis cell (Spectrum Medical Industries, Laguna Hills, CA, USA) using a Spectra/Por 4 membrane (mol. wt. cutoff 12−14 KDa; Spectrum Medical Industries, USA).
For orientation: In equilibrium dialysis only unbound substance equilibrates across the membrane.

Data set [6] is described as follows: LC478 concentration in intestine after oral administration and [I]/IC50 prediction. The data set is classed as in vivo. To be noted: our unpublished data. The protocol:
Concentration of LC478 was determined using a HPLC-UV system. A 50 µL aliquot of acetonitrile was added to a 50 µL aliquot of biological sample. After vortex-mixing and centrifugation, the supernatant was evaporated (Dry Thermo Bath MG-2200, Eyela, Tokyo, Japan) under a soft stream of nitrogen gas at 50 °C. The residue was reconstituted in 60 µL mobile phase and a 50 µL aliquot of the supernatant was loaded onto a reverse-phase C18 column (SunFireTM; 150 mm. ℓ. × 4.6 mm. i.d.; particle size, 5 µm; Waters, Milford, MA, USA). […]. The retention time of LC478 was approximately 7.8 min, and the quantitation limit was 0.1 µg/mL.

T1 sequence (P08183 whole entry): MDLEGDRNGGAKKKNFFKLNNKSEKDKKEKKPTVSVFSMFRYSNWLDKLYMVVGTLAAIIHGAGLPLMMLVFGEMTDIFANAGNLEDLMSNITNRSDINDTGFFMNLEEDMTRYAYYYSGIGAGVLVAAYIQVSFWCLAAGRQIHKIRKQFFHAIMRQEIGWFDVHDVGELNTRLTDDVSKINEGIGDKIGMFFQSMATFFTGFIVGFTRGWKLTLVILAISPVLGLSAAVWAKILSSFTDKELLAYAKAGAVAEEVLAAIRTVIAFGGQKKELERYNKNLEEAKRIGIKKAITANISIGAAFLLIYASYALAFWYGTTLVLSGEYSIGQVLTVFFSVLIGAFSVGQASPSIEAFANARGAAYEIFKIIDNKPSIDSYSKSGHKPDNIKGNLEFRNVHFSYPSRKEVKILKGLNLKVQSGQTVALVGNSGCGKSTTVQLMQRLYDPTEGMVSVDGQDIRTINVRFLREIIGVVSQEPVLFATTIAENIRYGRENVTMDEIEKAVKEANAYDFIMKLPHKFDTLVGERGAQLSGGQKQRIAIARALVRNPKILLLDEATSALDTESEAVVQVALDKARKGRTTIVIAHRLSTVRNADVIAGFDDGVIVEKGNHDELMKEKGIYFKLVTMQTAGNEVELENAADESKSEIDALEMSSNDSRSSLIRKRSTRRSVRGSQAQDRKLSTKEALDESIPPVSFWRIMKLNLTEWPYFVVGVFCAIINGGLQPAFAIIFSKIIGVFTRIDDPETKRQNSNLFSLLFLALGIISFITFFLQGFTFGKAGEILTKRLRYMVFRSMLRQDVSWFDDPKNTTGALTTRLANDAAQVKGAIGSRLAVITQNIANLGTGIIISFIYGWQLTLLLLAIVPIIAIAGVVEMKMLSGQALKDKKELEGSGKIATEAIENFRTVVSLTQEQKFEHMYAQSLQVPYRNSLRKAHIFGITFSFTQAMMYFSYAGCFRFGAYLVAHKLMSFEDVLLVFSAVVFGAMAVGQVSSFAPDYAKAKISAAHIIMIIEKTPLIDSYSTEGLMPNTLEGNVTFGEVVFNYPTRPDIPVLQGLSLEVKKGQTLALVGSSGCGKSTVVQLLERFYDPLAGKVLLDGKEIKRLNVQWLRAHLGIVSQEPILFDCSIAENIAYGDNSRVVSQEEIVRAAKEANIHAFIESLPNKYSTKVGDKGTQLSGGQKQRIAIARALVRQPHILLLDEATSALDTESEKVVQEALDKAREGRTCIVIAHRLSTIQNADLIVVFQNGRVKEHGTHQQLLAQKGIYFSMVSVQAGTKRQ

As a reminder, the IC50 is the concentration at which inhibition is half-maximal. What is called viability is the share of living cells, or the viability signal relative to a control. Lower therefore signals more harm to the cells. Regarding `COC(=O)c1cccc(NC(=O)COc2ccc(C34CC5CC(CC(C(=O)N6CCN(Cc7ccc(C(F)(F)F)cc7)CC6)(C5)C3)C4)cc2)c1` [LC478], on P-gp, the 50% inhibitory concentration (IC50) was determined as 601 nM. In data set [1], the “effect on intestinal metabolism of docetaxel” value is “not inhibited”. Also, in data set [2], the “effect on P-gp mediated efflux of paclitaxel” value is on record as “reversed P-gp mediated efflux activity” and the intrinsic cytotoxicity entry is on record as “without intrinsic cytotoxicity”. In data set [3], the “effect on hepatic metabolism of docetaxel” value is “not inhibited”. Further, in the data set with Caco-2 cells, the “toxicity to Caco-2 cells” value is “not toxic”. Also, the viability at 24 h in data set [4] was in the range of 97 to 100%. Further, the “effect on protein binding of docetaxel in rat plasma” value in data set [5] is on record as “did not affect”. Moreover, the “LC478 concentration in the intestine” value in data set [6] (after oral administration of 30 mg/kg LC478) was 3.25 to 5.18 µM. Further, the “LC478 concentration in the intestine” value in data set [6] (after oral administration of 100 mg/kg LC478) is 9.37 to 12.3 µM.
